Experimental data as given in patent US9642846B2, “Antifungal drugs” (GEORGETOWN UNIVERSITY, priority 2013, dated 2017).
In brackets after ≈: the same amount, converted by molar mass.

Key:
C. guilliermondii = experiment: MIC80 broth microdilution; type: cell-based, Candida guilliermondii; details: Meyerozyma guilliermondii, 80% growth inhibition, RPMI-1640
Source text: (§1) Fluconazole, an ergosterol inhibitor, and the beta-1,3-glucan inhibitor micafungin served as controls (See Tables 1 and 2).
(§2) The minimum inhibitory concentrations resulting in 80% growth inhibition (MIC of multiple Candida species (Candida albicans, Candida tropicalis, Candida, guilliermondii, Candida glabrata, Candida lusitaniae, Candida parapsilois, Candida neoformans, Candida krusei, and Candida apicola) as well as Aspergillus fumigatus to a set of formula (II), (III), (IV), and (V) was determined in accordance with the guidelines in CLSI document M27-A2 (Clinical and Laboratory Standards Institute; Wayne, Pa.). The total volume of cells and drug was 100 μL per microtiter well, and each drug was diluted in RPMI to achieve final concentrations of 0.2-100 μg/ml. Uninoculated cultures were used as a reference standard. Stock inoculum suspensions were prepared from 24 hour cultures on YPD (yeast extract/peptone/dextrose) media at 30° C.
(§3) For MIC determinations, an inoculum of 1.0×10^3 cells of Candida and 2.0×10^3 cells of Aspergillus per well were used, and cells in diluted drugs were prepared in RPMI-1640 medium. MICs were determined both visually and spectrophotometrically at 24 hours and 48 h at 550 nm using a micro plate reader. The MIC80 endpoint was measured as the lowest drug concentration resulting in a reduction of growth of 80% or more compared with growth of the control.

C. glabrata = experiment: MIC80 broth microdilution; type: cell-based, Candida glabrata; details: Nakaseomyces glabratus, 80% growth inhibition, RPMI-1640
Source text: as §1, §2, §3

C. parapsilosis = experiment: MIC80 broth microdilution; type: cell-based, Candida parapsilosis; details: Lodderomyces parapsilosis, 80% growth inhibition, RPMI-1640
Source text: as §1, §2, §3

C. lusitaniae = experiment: MIC80 broth microdilution; type: cell-based, Candida lusitaniae; details: Clavispora lusitaniae, 80% growth inhibition, RPMI-1640
Source text: as §1, §2, §3

C. apicola = experiment: MIC80 broth microdilution; type: cell-based, Candida apicola; details: Starmerella apicola, 80% growth inhibition, RPMI-1640
Source text: as §1, §2, §3

C. krusei = experiment: MIC80 broth microdilution; type: cell-based, Candida krusei; details: Pichia kudriavzevii, 80% growth inhibition, RPMI-1640
Source text: as §1, §2, §3

C. neoformans H99 = experiment: MIC80 broth microdilution; type: cell-based, Candida neoformans; details: Cryptococcus neoformans, 80% growth inhibition, RPMI-1640
Source text: as §1, §2, §3

C. neoformans JEC-21 = experiment: MIC80 broth microdilution; type: cell-based, Candida neoformans; details: Cryptococcus neoformans, JEC21, 80% growth inhibition, RPMI-1640
Source text: as §1, §2, §3

C. albicans (CaMDR) = experiment: MIC80 broth microdilution; type: cell-based; details: Candida albicans, read-out: Activity (MIC80)
Source text: as §1, §2, §3

C. albicans (SC5314) = experiment: MIC80 broth microdilution; type: cell-based; details: Candida albicans, 80% growth inhibition, RPMI-1640, read at 24 and 48 h
Source text: as §1, §2, §3

C. tropicalis = experiment: MIC80 broth microdilution; type: cell-based; details: Candida tropicalis, 80% growth inhibition, RPMI-1640
Source text: as §1, §2, §3

A. fumigatus AF293 = experiment: MIC80 broth microdilution; type: cell-based; details: Aspergillus fumigatus, 80% growth inhibition, RPMI-1640
Source text: as §1, §2, §3

A. fumigatus H11-20 = experiment: MIC80 broth microdilution; type: cell-based; details: Aspergillus fumigatus, H1120, 80% growth inhibition, RPMI-1640
Source text: as §1, §2, §3

MDR A. fumigatus = experiment: MIC80 broth microdilution; type: cell-based; details: Aspergillus fumigatus, 80% growth inhibition, RPMI-1640
Source text: as §1, §2, §3

HepG2 liver cell = experiment: MTT toxicity assay; type: cell-based, human; details: MTT after 24 hours and 48 hours
Protocol: (§4) The MTT assay is a colorimetric assay that measures the reduction of yellow 3-(4,5-dimethythiazol-2-yl)-2,5-diphenyl tetrazolium bromide (MTT) by mitochondrial succinate dehydrogenase. The MIT enters the cells and passes into the mitochondria where it is reduced to an insoluble, dark purple, formazan product. The cells are then solubilized with an organic solvent (e.g., isopropanol) and the released, solubilized formazan reagent is measured spectrophotometrically. Since reduction of MTT can only occur in metabolically active cells, the level of activity is a measure of the viability of the cells.
(§5) Cells of the HepG2 liver cell, NIH/3T3 fibrolast cell, or 293T kidney cell were seeded in a 96 well plate. The plate was incubated overnight at 37° C. in a humidified incubator, 5% CO2. Compounds of formula (II), (III), (IV), (V), and (VI) were added to the plate. Different concentrations of drug were tested in triplicate along with a negative control. The final volume was adjusted to 100 μl per well. The plate was incubated overnight at 37° C. in a humidified incubator, 5% CO2. After 24 hours and 48 hours, MTT reagent (5 mg/ml, 10 μl/100 μl per well of the 96 well plate) was added and incubated at 37° C. for 3 hours. After 3 hours, 100 μl of the DMSO solution was added to each well and the plate was rocked at room temperature for 1 hour. The plate was then read on a plate reader at […]. The results are shown below in tables 1 and 2.

293T kidney cell = experiment: MTT toxicity assay; type: cell-based; details: MTT after 24 hours and 48 hours
Protocol: as §4, §5

NIH/3T3 Fibroblast cell = experiment: MTT toxicity assay; type: cell-based; details: MTT after 24 hours and 48 hours
Protocol: as §4, §5

C. albicans (wild type) = experiment: E-test of formula (II) and fluconazole; type: cell-based, Candida albicans; details: fluconazole E test strips on YPD plate, 48 h at 30° C.
Protocol: E test strips (Biomerieux) containing a graded series of fluconazole concentration are placed on a YPD plate that had been previously inoculated to confluency with C. albicans. The strip plate that was inoculated, is incubated for 48 h at 30° C. The zone of inhibition at the lowest concentration of fluconazole is read as the MIC. The results, shown in FIG. 2, indicate synergy between the compound of formula (II) and fluconazole.

Structure (SMILES)	MIC80 (C. guilliermondii)	MIC80 (C. glabrata)	MIC80 (C. parapsilosis)	MIC80 (C. lusitaniae)	MIC80 (C. apicola)	MIC80 (C. krusei)	MIC80 (C. neoformans H99)	MIC80 (C. neoformans JEC-21)	MIC80 (C. albicans (CaMDR))	MIC80 (C. albicans (SC5314))	MIC80 (C. tropicalis)	MIC80 (A. fumigatus AF293)	MIC80 (A. fumigatus H11-20)	MIC80 (MDR A. fumigatus)	toxicity (MTT) (HepG2 liver cell)	toxicity (MTT) (293T kidney cell)	toxicity (MTT) (NIH/3T3 Fibroblast cell)	interaction with fluconazole (E-test) (C. albicans (wild type))
OC(Cn1cncn1)(Cn1cncn1)c1ccc(F)cc1F [Fluconazole, reference compound]	2 µg/mL (≈ 6.53 µM)	2 µg/mL (≈ 6.53 µM)	1 µg/mL (≈ 3.27 µM)	2 µg/mL (≈ 6.53 µM)	0.25 µg/mL (≈ 0.816 µM)	32 µg/mL (≈ 104 µM)	4 µg/mL (≈ 13.1 µM)	2 µg/mL (≈ 6.53 µM)	32 µg/mL (≈ 104 µM)	0.25 µg/mL (≈ 0.816 µM)	0.5 µg/mL (≈ 1.63 µM)							
CCC(C)n1ncn(-c2ccc(N3CCN(c4ccc(OCC5COC(Cn6cncn6)(c6ccc(Cl)cc6Cl)O5)cc4)CC3)cc2)c1=O (stereo not shown) [Itraconazole, reference compound]												0.5 µg/mL (≈ 0.709 µM)	0.5 µg/mL (≈ 0.709 µM)	> 100 µg/mL				
COc1cc2cc[n+]3c(C)c4cc5c(cc4cc3c2cc1OC)OCO5 [compound 156624]	4 µg/mL	1 µg/mL	8 µg/mL	1 µg/mL	4 µg/mL	4 µg/mL	8 µg/mL	1 µg/mL	0.2 µg/mL	4 µg/mL	4 µg/mL	4 µg/mL	4 µg/mL	4 µg/mL	80 µg/mL	80 µg/mL	>100 µg/mL	
Cc1c2cc3c(cc2cc2c4cc5c(cc4cc[n+]12)OCO5)OCO3 [compound 156627]	0.5 µg/mL	< 0.2 µg/mL	1 µg/mL	< 0.2 µg/mL	0.5 µg/mL	0.5 µg/mL	1 µg/mL	< 0.2 µg/mL	0.05 µg/mL	0.5 µg/mL	0.5 µg/mL	0.5 µg/mL	0.5 µg/mL	0.5 µg/mL	25 µg/mL	25 µg/mL	40 µg/mL	synergy
CCc1c2cc3c(cc2cc2c4cc5c(cc4cc[n+]12)OCO5)OCO3 [compound 157108]	2 µg/mL	0.2 µg/mL	2 µg/mL	0.2 µg/mL	1 µg/mL	2 µg/mL	2 µg/mL	0.2 µg/mL	0.2 µg/mL	1 µg/mL	2 µg/mL	1 µg/mL	1 µg/mL	1 µg/mL	64 µg/mL	70 µg/mL	100 µg/mL	
COc1cc2cc3c4cc5c(cc4cc[n+]3c(C)c2cc1OC)OCO5 [compound 160459]	4 µg/mL	0.5 µg/mL	8 µg/mL	1 µg/mL	4 µg/mL	4 µg/mL	8 µg/mL	0.5 µg/mL	0.1 µg/mL	4 µg/mL	4 µg/mL	4 µg/mL	4 µg/mL	4 µg/mL	50 µg/mL	60 µg/mL	80 µg/mL	
COc1ccc2cc3c4cc5c(cc4cc[n+]3cc2c1OC)OCO5 [compound 403831]	1 µg/mL	0.25 µg/mL	2 µg/mL	0.5 µg/mL	1 µg/mL	2 µg/mL	0.5 µg/mL	0.5 µg/mL	0.1 µg/mL	1 µg/mL	1 µg/mL	1 µg/mL	1 µg/mL	1 µg/mL	80 µg/mL	80 µg/mL	96 µg/mL	
